Tests used:
[1] = system: U87MG glioblastoma tumors; experiment: U87MG glioblastoma tumor xenograft model (tumor growth inhibition); type: in vivo, athymic nude mice
Method: The U87MG glioblsatoma cell line (Piedmont Research Center LLC) expresses the c-Met receptor and responds to Human Growth Factor (HGF). This study investigated whether treatment with an inhibitor of c-Met is efficacious against the U87MG glioblastoma tumor xenograft model. This study utilized a tumor growth inhibition (TGI) assay to test per os (p.o.) compound monotherapy in groups of fifteen nude mice. A control group was treated with vehicle, 20% Hydroxypropyl Beta-Cyclodextrin (HPBCD). All treatments began on Day 1 (D1) in mice bearing established subcutaneous (s.c.) U87MG tumors.
Female athymic nude mice (Harlan) were 10-11 weeks old with a BW range of 18.1-25.0 g on D1 of the study. The animals were fed ad libitum water (reverse osmosis, 1 ppm Cl) and NIH 31 Modified and Irradiated Lab Diet® consisting of 18.0% crude protein, 5.0% crude fat, and 5.0% crude fiber. The mice were housed on irradiated ALPHA-dri® Bed-o-cobs® Laboratory Animal Bedding in static microisolators on a 12-hour light cycle at 21-22° C. (70-72° F.) and 40-60% humidity. All animals were housed in a Laboratory Animal Medicine facility that is fully accredited by the American Association for Assessment and Accreditation of Laboratory Animal Care (AAALAC). All procedures involving animals were conducted in compliance with the NIH Guide for the Care and Use of Laboratory Animals and all protocols were approved by an Internal Animal Care and Use Committee (IACUC).
Xenografts were initiated from U87MG human glioblastoma tumor fragments maintained by serial transplantation in athymic nude mice. Each test mouse received a subcutaneous U87MG tumor fragment (1 mm^3) implanted in the right flank, and the growth of tumors was monitored as the average size approached 200 mm^3. Twelve days later, on Day 1 of the study, the animals were sorted into 4 groups (n=12-15 mice/group) with individual tumor volumes ranging from 172-352 mm^3 and group mean tumor volumes of 216 mm^3. Tumor volume was calculated using the formula:
[formula] where w=width and l=length in mm of the tumor. Tumor weight may be estimated with the assumption that 1 mg is equivalent to 1 mm^3 of tumor volume. Drug Treatment
Dosing solutions of compounds of the present invention were prepared fresh weekly in a vehicle consisting of 20% Hydroxypropyl Beta-Cyclodextrin (HPBCD) in water. In all groups, the dosing volume of 0.2 mL/20-g mouse was scaled to the body weight of each animal. Doses were given to allow for the HCl salt form of the compound.
TGI was calculated from the difference between the median tumor volumes of vehicle-treated and drug-treated mice, expressed as a percentage of the median tumor volume of the vehicle-treated control group, by the following relation:
The MTV (n) is defined as the median tumor volume (MTV) for the number of animals, n, remaining in the study on that day.
Animals were weighed daily for the first five days of the study and then twice weekly. The mice were examined frequently for overt signs of any adverse, drug-related side effects, and clinical signs of toxicity were recorded when observed. Acceptable toxicity is defined as a group mean body-weight (BW) loss of less than 20% during the study, and not more than one treatment-related (TR) death among ten animals. A death is classified as TR if it is attributable to treatment side effects as evidenced by clinical signs and/or necropsy, or due to unknown causes during the dosing period or within 10 days of the last dose. A death is classified as non treatment-related (NTR) if there is no evidence that the death was related to drug side effects. A death is classified as non treatment-related unknown (NTRu) if the cause of death is unknown.
The Mann-Whitney U-test, for analysis of medians, was used to determine the statistical significance of the difference between the MTVs. Prism 3.03 (GraphPad) for Windows was used for the statistical analyses and graphic presentations. […]

HepG2 cells = experiment: HepG2 cellular scatter assay (HGF-induced, RT-CES impedance); type: cell-based; settings: Homo sapiens, 40 ng/ml HGF
Excerpt: Human Growth Factor (HGF) and its receptor (c-Met) are involved in cellular motility. Indeed HGF was also identified as Scatter Factor (SF), based on its powerful motility effect on certain cell types. Cellular motility is critical for pathological processes of oncologic disease, most importantly, the establishment of metastatic lesions distant from the primary tumor and formation of new blood vessels (angiogenesis). One therapeutic hypothesis is that this movement of cell types may be blunted or eliminated by the use of c-Met kinase inhibitors. (See: Jiang, W. C, Martin, T. A., Parr, C., Davies, G., Matsumoto, K. and Nakamura, T. Critical Reviews in Oncology/Hematology 53 (2005) 35-69. and references cited therein.) It should also be noted that cellular motility, especially with regard to angiogenesis, is important in other disease states.
Cellular scatter was measured with a Real-Time Cell Electronic Sensing system (RT-CES), from ACEA Biosciences Inc. (San Diego, Calif.). The RT-CES system uses specialized RT-ACE microtiter plates (cat:RCD96, ACEA Biosciences Inc.) to non-invasively quantify cellular status in real-time. The interaction of cells with the surface of the plates, which are integrated with microelectronic sensor arrays, leads to the generation of a cell-electrode impedance response. A higher impedance value indicates more cell attachment and thus less cellular scatter.
50 μl of Assay Media (MEM supplemented with 10% FBS, 2 mM L-glutamine, 1.5 g/L sodium bicarbonate, 1 mM sodium pyruvate, and 0.1 mM non-essential amino acids) was added into 96-well RT-ACE plates and recorded for 30 min on the RT-CES. 50 μl of HepG2 cells (cat: HB-8065, ATCC) were added into each well ([…]). The plate was read in RT-CES and incubated for 20-24 hours. After the 20-24 hours incubation, 50 μl of Assay Media containing different concentrations of testing compounds was added into each well and incubated for 1 hour. Finally, 50 μl of Assay Media containing 160 ng/ml of HGF was added into each well (40 ng/ml in 200 μl). The plate was incubated and read in the RT-CES for 20-24 hours, with a record time every 15 minutes. The positive control was HGF without compounds and negative control was no-HGF without compound. All determinations were performed in duplicate wells and IC50 values were calculated using GraphPad Prism software (GraphPad Software; San Diego, Calif.).

With Cn1cc(-c2ccc3nnc(C(F)(F)c4ccc5ncccc5c4)n3n2)cn1 [Example 61, 6-{Difluoro-[6-(1-methyl-1H-pyrazol-4-yl)-[1,2,4]triazolo[4,3-b]pyridazin-3-yl]-methyl}-quinoline] the “decrease of mean tumor volume” value ([1]; 25 mg/kg p.o., q.d. on day 1 and b.i.d. to day 12, Day 12, p<0.01) was 94%, the “decrease of mean tumor volume” value ([1]; 50 mg/kg p.o., b.i.d. for 7 days, 24-hr pause, then q.d. to day 12, Day 12, p<0.01) was 96% and the “decrease of mean tumor volume” value ([1]; 75 mg/kg p.o., b.i.d. for 7 days, 24-hr pause, then q.d. to day 12, Day 12, p<0.01) was 97%. For the same molecule, the tumor regression ([1]; 25, 50 and 75 mg/kg p.o., 12 days) was “Tumor regression was also observed with all three doses”, the “tumor growth inhibition of U87MG tumors” value ([1]; 25, 50 and 75 mg/kg p.o., 12 days, p<0.01) was “statistically significant, tumor growth inhibition” and the IC50 (HepG2 cells) was 106 nM.
